Test results published in paper PMC4356482 (Bioorganic & medicinal chemistry letters, 2011).

What was measured:
Format in all cases: binding
[1] = target: T1, fatty acid synthase I (FAS I) (Mycobacterium tuberculosis, UniProt P95029); experiment: STD-NMR
[2] = target: T1, fatty acid synthase I (FAS I); experiment: STD-NMR, competition titration with PZA
[3] = target: T1, fatty acid synthase I (FAS I); experiment: biochemical

| Structure (SMILES) | STD-NMR, competition titration with PZA [2] | further results |
| --- | --- | --- |
| C/C=C/C/C=C/CCC(=O)[C@H]1O[C@H]1C(N)=O [Cerulenin] |  | STD-NMR (positive control, 350 μM cerulenin) [1]: displays signals corresponding to cerulenin resonances that are indicative of cerulenin binding to Mtb FAS I |
| NC(=O)C1=CN([C@@H]2O[C@H](COP(=O)(O)OP(=O)(O)OC[C@H]3O[C@@H](n4cnc5c(N)ncnc54)[C@H](OP(=O)(O)O)[C@@H]3O)[C@@H](O)[C@H]2O)C=CC1 [NADPH] | Consistent with the binding of NADPH to Mtb FAS I the intensity of the NADPH resonances increases. |  |
| O=C(O)c1cnccn1 [POA, pyrazinoic acid] | although POA binds reversibly to Mtb FAS I it does not compete with PZA since PZA is apparently not displaced |  |
| NC(=O)c1cnccn1 [PZA, Pyrazinamide] |  | Kd [3]: 70 to 123 µM |
